In patent US20180071242A1, “SUBSTITUTED ACYLANILIDES AND METHODS OF USE THEREOF” (University of Tennessee Research Foundation, priority 2006, published 2018):

Key:
GR = biological target: T1, GR (Rattus norvegicus, UniProt P06536); assay: Transient transfection luciferase transactivation assay in HEK-293 cells; assay type: cell-based; conditions: for GR-mediated transactivation, agonist mode (in words): all tested concentrations; for Inhibition of dexamethasone-induced GR-mediated transactivation, antagonist mode (in words): with 1 nM dexamethasone
T1 construct: expressed in transfected cells; host or cells: HEK-293
T1 sequence (P06536 1-795): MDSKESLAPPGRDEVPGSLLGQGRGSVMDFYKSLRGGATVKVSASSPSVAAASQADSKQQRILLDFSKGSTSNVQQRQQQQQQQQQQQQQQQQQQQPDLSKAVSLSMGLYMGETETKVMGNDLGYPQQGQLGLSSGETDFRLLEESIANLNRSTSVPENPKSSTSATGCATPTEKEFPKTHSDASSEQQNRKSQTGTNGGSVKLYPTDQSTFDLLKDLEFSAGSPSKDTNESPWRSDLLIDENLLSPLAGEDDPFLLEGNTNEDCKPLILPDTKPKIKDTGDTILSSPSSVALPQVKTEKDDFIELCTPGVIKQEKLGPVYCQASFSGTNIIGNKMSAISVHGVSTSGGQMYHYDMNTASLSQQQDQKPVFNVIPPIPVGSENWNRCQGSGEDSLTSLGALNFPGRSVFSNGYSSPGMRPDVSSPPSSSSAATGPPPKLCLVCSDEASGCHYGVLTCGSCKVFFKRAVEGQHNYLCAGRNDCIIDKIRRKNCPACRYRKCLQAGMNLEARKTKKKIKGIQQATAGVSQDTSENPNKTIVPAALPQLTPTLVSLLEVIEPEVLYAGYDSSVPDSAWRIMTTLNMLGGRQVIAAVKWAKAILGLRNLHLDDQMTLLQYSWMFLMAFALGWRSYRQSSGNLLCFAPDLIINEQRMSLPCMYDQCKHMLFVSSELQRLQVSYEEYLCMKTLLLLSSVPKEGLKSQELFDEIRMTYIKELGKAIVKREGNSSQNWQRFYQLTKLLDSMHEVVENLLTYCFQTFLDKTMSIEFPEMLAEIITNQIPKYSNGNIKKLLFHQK

ER-β = biological target: T2, ER-β (Rattus norvegicus, UniProt Q62986); assay: as above; assay type: cell-based; conditions: for ER-β transactivation, agonist mode (in words): up to the highest tested concentration (1 μM); for Inhibition of estradiol-induced ER-β activity, antagonist mode (in words): with 1 nM estradiol
T2 construct: expressed in transfected cells; host or cells: HEK-293

CYP2C19 = biological target: T3, CYP2C19 (Homo sapiens, UniProt P33261); assay: CYP inhibition screening, recombinant enzyme (fluorescent-based) assay; assay type: in vitro ADME; conditions: for Inhibition of CYP2C19 activity (in words): human, human cDNA-expressed (recombinant) CYP2C19, 30 min
T3 construct: purchased Gentest, BD Biosciences

MR = biological target: T4, MR (Rattus norvegicus, UniProt P22199); assay: Transient transfection luciferase transactivation assay in HEK-293 cells; assay type: cell-based; conditions: for MR-mediated transactivation, agonist mode (in words): all tested concentrations; for Inhibition of aldosterone-induced MR-mediated transactivation, antagonist mode (in words): with 1 nM aldosterone
T4 construct: expressed in transfected cells; host or cells: HEK-293
T4 sequence (P22199 1-981): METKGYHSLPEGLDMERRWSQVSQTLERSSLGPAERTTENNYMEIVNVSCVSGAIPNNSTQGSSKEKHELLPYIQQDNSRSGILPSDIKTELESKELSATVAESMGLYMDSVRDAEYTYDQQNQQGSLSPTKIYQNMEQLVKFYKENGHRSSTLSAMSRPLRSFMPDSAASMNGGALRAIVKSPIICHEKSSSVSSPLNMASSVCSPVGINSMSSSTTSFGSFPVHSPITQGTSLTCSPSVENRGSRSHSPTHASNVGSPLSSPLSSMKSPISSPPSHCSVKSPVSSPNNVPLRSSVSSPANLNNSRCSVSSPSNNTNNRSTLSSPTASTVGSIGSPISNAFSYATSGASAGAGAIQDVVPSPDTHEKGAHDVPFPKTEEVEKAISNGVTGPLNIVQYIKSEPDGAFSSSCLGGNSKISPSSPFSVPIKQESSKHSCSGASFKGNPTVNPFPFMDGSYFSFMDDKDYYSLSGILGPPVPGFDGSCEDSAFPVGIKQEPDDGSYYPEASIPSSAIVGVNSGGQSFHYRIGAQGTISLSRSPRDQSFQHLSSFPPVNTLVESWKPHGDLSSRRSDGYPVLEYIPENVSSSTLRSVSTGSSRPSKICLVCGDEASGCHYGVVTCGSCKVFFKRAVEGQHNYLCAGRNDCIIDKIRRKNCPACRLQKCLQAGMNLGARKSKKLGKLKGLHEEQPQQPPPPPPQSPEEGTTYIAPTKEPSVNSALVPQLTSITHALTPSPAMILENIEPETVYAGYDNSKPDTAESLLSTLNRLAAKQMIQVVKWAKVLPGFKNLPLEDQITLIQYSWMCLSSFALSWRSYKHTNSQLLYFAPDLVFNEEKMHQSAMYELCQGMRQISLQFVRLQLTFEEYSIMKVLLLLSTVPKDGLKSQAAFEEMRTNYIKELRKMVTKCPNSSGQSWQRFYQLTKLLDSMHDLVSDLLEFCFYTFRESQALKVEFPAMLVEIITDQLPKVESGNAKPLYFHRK

CYP1A2 = biological target: T5, CYP1A2 (Homo sapiens, UniProt P05177); assay: CYP inhibition screening, recombinant enzyme (fluorescent-based) assay
T5 sequence (P05177 1-516): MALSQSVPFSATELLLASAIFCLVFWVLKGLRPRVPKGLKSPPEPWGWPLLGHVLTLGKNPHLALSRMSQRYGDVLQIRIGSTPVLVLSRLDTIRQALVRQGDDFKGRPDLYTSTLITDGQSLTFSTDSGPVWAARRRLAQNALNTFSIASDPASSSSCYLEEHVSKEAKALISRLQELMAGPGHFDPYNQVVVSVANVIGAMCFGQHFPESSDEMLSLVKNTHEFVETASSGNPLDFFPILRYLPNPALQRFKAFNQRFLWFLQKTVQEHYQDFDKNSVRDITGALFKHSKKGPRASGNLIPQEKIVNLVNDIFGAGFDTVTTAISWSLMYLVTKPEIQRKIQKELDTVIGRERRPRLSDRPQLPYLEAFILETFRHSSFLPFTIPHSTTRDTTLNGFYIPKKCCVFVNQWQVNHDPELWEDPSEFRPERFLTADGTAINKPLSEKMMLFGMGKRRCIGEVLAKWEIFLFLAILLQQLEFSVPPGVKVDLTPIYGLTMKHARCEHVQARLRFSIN
Procedure: (§1) Human recombinant CYP enzymes and fluorescence-based substrates were used to determine the IC50 values of S-(I) against CYP3A4, 2D6, 2C19, 2C9, and 1A2.
(§2) CYP inhibition screening procedures were performed essentially according to the manufacturer's instructions (Gentest, BD Biosciences, Waltham, Mass.). Briefly, CYP enzyme inhibition was measured using human cDNA-expressed CYP3A4, 2D6, 2C19, 2C9, and 1A2 enzymes. Analogs of the model substrate coumarin were utilized for each isoenzyme.
(§3) The concentration of acetonitrile was kept constant at 0.4%, and the reaction was carried out at 37° C. for 30 minutes.
(§4) For IC50 determination, data was fitted using the non-linear regression equation “sigmoidal dose response, variable slope” defined as: Y=Bottom+(Top-Bottom)/(1+10̂((Log EC50−X)*HillSlope)) where X is the logarithm of concentration of the indicated compound, and Y is the response.

CYP2D6 = CYP2D6 (Homo sapiens, UniProt P10635); assay: as above
Procedure: as §1, §2, §3, §4

T2 sequence (Q62986 whole entry): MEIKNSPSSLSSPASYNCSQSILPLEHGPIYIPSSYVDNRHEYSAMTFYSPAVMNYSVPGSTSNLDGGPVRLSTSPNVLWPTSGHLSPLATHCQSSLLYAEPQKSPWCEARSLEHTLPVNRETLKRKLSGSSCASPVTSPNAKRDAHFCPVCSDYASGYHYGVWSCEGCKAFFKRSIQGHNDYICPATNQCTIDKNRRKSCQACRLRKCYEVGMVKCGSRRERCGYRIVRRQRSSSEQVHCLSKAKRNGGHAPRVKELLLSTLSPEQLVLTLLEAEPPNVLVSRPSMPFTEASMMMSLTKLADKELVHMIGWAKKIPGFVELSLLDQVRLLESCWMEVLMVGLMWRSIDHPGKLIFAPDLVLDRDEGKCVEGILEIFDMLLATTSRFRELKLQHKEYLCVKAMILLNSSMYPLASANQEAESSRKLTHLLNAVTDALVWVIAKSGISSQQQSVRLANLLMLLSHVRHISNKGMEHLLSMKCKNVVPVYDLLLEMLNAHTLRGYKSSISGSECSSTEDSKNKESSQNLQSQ
Chain of CYP2D6 (P10635 whole entry): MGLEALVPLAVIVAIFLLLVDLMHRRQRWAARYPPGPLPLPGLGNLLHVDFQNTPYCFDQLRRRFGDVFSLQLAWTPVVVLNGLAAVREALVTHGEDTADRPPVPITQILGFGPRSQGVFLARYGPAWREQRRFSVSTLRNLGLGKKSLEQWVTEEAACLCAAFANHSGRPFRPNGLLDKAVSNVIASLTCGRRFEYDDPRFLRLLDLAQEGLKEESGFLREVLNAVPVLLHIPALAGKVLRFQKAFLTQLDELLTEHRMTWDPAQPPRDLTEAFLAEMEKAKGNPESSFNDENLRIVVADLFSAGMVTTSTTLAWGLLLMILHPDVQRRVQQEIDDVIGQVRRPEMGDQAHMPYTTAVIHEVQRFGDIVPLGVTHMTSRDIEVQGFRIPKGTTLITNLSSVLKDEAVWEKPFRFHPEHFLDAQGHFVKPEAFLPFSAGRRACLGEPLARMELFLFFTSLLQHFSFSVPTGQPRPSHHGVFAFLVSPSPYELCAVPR
T3 sequence (P33261 whole entry): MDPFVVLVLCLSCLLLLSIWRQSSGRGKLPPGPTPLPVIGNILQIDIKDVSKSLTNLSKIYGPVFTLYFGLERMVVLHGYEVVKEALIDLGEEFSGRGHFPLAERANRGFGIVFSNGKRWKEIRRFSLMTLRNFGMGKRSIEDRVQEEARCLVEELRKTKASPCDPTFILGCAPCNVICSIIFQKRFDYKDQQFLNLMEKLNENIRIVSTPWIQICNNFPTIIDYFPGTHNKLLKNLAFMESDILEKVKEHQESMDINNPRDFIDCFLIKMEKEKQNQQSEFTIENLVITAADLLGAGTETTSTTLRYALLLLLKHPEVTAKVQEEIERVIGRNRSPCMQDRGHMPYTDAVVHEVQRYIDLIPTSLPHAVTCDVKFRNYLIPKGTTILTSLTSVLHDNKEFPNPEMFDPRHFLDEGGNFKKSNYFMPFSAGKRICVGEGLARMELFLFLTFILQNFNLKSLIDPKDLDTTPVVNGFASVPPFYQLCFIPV

SMILES	GR-mediated transactivation, agonist mode (in words) (GR)	Inhibition of dexamethasone-induced GR-mediated transactivation, antagonist mode (in words) (GR)	ER-β transactivation, agonist mode (in words) (ER-β)	Inhibition of estradiol-induced ER-β activity, antagonist mode (in words) (ER-β)	IC50 (CYP2C19) [µM]	MR-mediated transactivation, agonist mode (in words) (MR)	Inhibition of aldosterone-induced MR-mediated transactivation, antagonist mode (in words) (MR)	IC50 (CYP1A2) [µM]	IC50 (CYP2D6) [µM]	Inhibition of CYP2C19 activity (in words) (CYP2C19)
C[C@](O)(COc1ccc(C#N)cc1)C(=O)Nc1ccc(C#N)c(Cl)c1 [S-(I), (S)—N-(3-chloro-4-cyanophenyl)-3-(4-cyanophenoxy)-2-hydroxy-2-methylpropanamide]	failed to activate	failed to alter	failed to activate	failed to alter	> 20	failed to activate	failed to alter	> 20	> 20	–
C[C@](O)(COc1ccc(Cl)cc1)C(=O)Nc1ccc(C#N)c(C(F)(F)F)c1 [S-(II)]	did not induce	not inhibited	failed to activate	failed to alter	0.1	did not induce	not inhibited	> 20	> 20	moderate inhibition
C[C@](O)(COc1ccc(F)cc1)C(=O)Nc1ccc(C#N)c(C(F)(F)F)c1 [S-(III)]	did not induce	not inhibited	failed to activate	failed to alter	0.1	did not induce	not inhibited	> 20	> 20	moderate inhibition
